From PubChem BioAssay AID1963427 (Molecular Pharmacology Branch, DTP, NCI, 2024)
pIC50: −log10 of the molar value.

System: 317291-083-R-J1-PDC complex spheroid growth
Assay: Anticancer human tumor 317291-083-R-J1-PDC patient-derived soft tissue sarcoma cell line growth inhibition [Asc]
Settings: for pIC50: curve of first compound; for viability, T/C: stronger effect = lower value
How it was run: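 Complex solid-tumor spheroids incorporating human endothelial and mesenchymal stem cells received single agents or combinations over half-log dilution ranges anchored to clinical Cmax.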

[1] = second compound 0.00316 µM, first compound 0.00316 µM
[2] = second compound 0.00316 µM, first compound 0.01 µM
[3] = second compound 0.00316 µM, first compound 0.0316 µM
[4] = second compound 0.00316 µM, first compound 0.1 µM
[5] = second compound 0.01 µM, first compound 0.00316 µM
[6] = second compound 0.01 µM, first compound 0.01 µM
[7] = second compound 0.01 µM, first compound 0.0316 µM
[8] = second compound 0.01 µM, first compound 0.1 µM
[9] = second compound 0.0316 µM, first compound 0.00316 µM
[10] = second compound 0.0316 µM, first compound 0.01 µM
[11] = second compound 0.0316 µM, first compound 0.0316 µM
[12] = second compound 0.0316 µM, first compound 0.1 µM
[13] = second compound 0.1 µM, first compound 0.00316 µM
[14] = second compound 0.1 µM, first compound 0.01 µM
[15] = second compound 0.1 µM, first compound 0.0316 µM
[16] = second compound 0.1 µM, first compound 0.1 µM
[17] = second compound 0.316 µM, first compound 0.00316 µM
[18] = second compound 0.316 µM, first compound 0.01 µM
[19] = second compound 0.316 µM, first compound 0.0316 µM
[20] = second compound 0.316 µM, first compound 0.1 µM
[21] = second compound 1 µM, first compound 0.00316 µM
[22] = second compound 1 µM, first compound 0.01 µM
[23] = second compound 1 µM, first compound 0.0316 µM
[24] = second compound 1 µM, first compound 0.1 µM
[25] = second compound 0.00316 µM, first compound 0.316 µM
[26] = second compound 0.00316 µM, first compound 1 µM
[27] = second compound 0.01 µM, first compound 0.316 µM
[28] = second compound 0.01 µM, first compound 1 µM
[29] = second compound 0.0316 µM, first compound 0.316 µM
[30] = second compound 0.0316 µM, first compound 1 µM
[31] = second compound 0.1 µM, first compound 0.316 µM
[32] = second compound 0.1 µM, first compound 1 µM
[33] = second compound 0.316 µM, first compound 0.316 µM
[34] = second compound 0.316 µM, first compound 1 µM
[35] = second compound 1 µM, first compound 0.316 µM
[36] = second compound 1 µM, first compound 1 µM
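Note: compound exposure lasted seven days after spheroids formed for three days.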
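Throughout, for viability, T/C: 100% = DMSO vehicle control wells.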

## Cn1ncnc1[C@H]1c2n[nH]c(=O)c3cc(F)cc(c23)N[C@@H]1c1ccc(F)cc1 + CNC(C)C(=O)NC1CN(S(=O)(=O)c2cccc(S(=O)(=O)N3CCC4CCC(C(=O)NC(c5ccccc5)c5ccccc5)N4C(=O)C(NC(=O)C(C)NC)C3)c2)CCC2CCC(C(=O)NC(c3ccccc3)c3ccccc3)N2C1=O
Second compound 0.00316 µM
  pIC50: > 9.50
Second compound 0.01 µM
  pIC50: > 9.50
Second compound 0.0316 µM
  pIC50: 7.66
Second compound 0.1 µM
  pIC50: 7.76
Second compound 0.316 µM
  pIC50: 9.00
Second compound 1 µM
  pIC50: > 9.50
Second compound 0.00316 µM, first compound 0.000316 µM
  viability, T/C: 3.79%
Second compound 0.00316 µM, first compound 0.001 µM
  viability, T/C: 4.39%
[1]
  viability, T/C: 4.26%
[2]
  viability, T/C: 4.44%
[3]
  viability, T/C: 4.58%
[4]
  viability, T/C: 4.39%
Second compound 0.01 µM, first compound 0.000316 µM
  viability, T/C: 45.2%
Second compound 0.01 µM, first compound 0.001 µM
  viability, T/C: 37.4%
[5]
  viability, T/C: 46.9%
[6]
  viability, T/C: 29.3%
[7]
  viability, T/C: 28.5%
[8]
  viability, T/C: 34.5%
Second compound 0.0316 µM, first compound 0.000316 µM
  viability, T/C: 79%
Second compound 0.0316 µM, first compound 0.001 µM
  viability, T/C: 86%
[9]
  viability, T/C: 82.5%
[10]
  viability, T/C: 57%
[11]
  viability, T/C: 40.3%
[12]
  viability, T/C: 52.7%
Second compound 0.1 µM, first compound 0.000316 µM
  viability, T/C: 95.4%
Second compound 0.1 µM, first compound 0.001 µM
  viability, T/C: 76.5%
[13]
  viability, T/C: 60.8%
[14]
  viability, T/C: 56.6%
[15]
  viability, T/C: 39.3%
[16]
  viability, T/C: 50.4%
Second compound 0.316 µM, first compound 0.000316 µM
  viability, T/C: 58.8%
Second compound 0.316 µM, first compound 0.001 µM
  viability, T/C: 55.7%
[17]
  viability, T/C: 36.8%
[18]
  viability, T/C: 41.6%
[19]
  viability, T/C: 28.9%
[20]
  viability, T/C: 35.9%
Second compound 1 µM, first compound 0.000316 µM
  viability, T/C: 34%
Second compound 1 µM, first compound 0.001 µM
  viability, T/C: 37.4%
[21]
  viability, T/C: 28.1%
[22]
  viability, T/C: 30.9%
[23]
  viability, T/C: 29.2%
[24]
  viability, T/C: 22.3%

## O=C(c1cc(Cc2n[nH]c(=O)c3ccccc23)ccc1F)N1CCN(C(=O)C2CC2)CC1 + CNC(C)C(=O)NC1CN(S(=O)(=O)c2cccc(S(=O)(=O)N3CCC4CCC(C(=O)NC(c5ccccc5)c5ccccc5)N4C(=O)C(NC(=O)C(C)NC)C3)c2)CCC2CCC(C(=O)NC(c3ccccc3)c3ccccc3)N2C1=O
Second compound 0.00316 µM
  pIC50: > 7.50
Second compound 0.01 µM
  pIC50: > 7.50
Second compound 0.0316 µM
  pIC50: 5.44
Second compound 0.1 µM
  pIC50: 6.13
Second compound 0.316 µM
  pIC50: 7.50
Second compound 1 µM
  pIC50: > 7.50
[3]
  viability, T/C: 4.34%
[4]
  viability, T/C: 4.85%
[25]
  viability, T/C: 5.04%
[26]
  viability, T/C: 5.11%
Second compound 0.00316 µM, first compound 3.16 µM
  viability, T/C: 4.26%
Second compound 0.00316 µM, first compound 10 µM
  viability, T/C: 4.12%
[7]
  viability, T/C: 37%
[8]
  viability, T/C: 43.8%
[27]
  viability, T/C: 55.6%
[28]
  viability, T/C: 33.9%
Second compound 0.01 µM, first compound 3.16 µM
  viability, T/C: 16.4%
Second compound 0.01 µM, first compound 10 µM
  viability, T/C: 16.1%
[11]
  viability, T/C: 65.5%
[12]
  viability, T/C: 67.9%
[29]
  viability, T/C: 62%
[30]
  viability, T/C: 58.1%
Second compound 0.0316 µM, first compound 3.16 µM
  viability, T/C: 55.2%
Second compound 0.0316 µM, first compound 10 µM
  viability, T/C: 23.9%
[15]
  viability, T/C: 78.5%
[16]
  viability, T/C: 71.3%
[31]
  viability, T/C: 57.7%
[32]
  viability, T/C: 54.7%
Second compound 0.1 µM, first compound 3.16 µM
  viability, T/C: 23.4%
Second compound 0.1 µM, first compound 10 µM
  viability, T/C: 34.9%
[19]
  viability, T/C: 52%
[20]
  viability, T/C: 44.4%
[33]
  viability, T/C: 44.8%
[34]
  viability, T/C: 50.8%
Second compound 0.316 µM, first compound 3.16 µM
  viability, T/C: 17.4%
Second compound 0.316 µM, first compound 10 µM
  viability, T/C: 21.4%
[23]
  viability, T/C: 34.3%
[24]
  viability, T/C: 47.7%
[35]
  viability, T/C: 34.8%
[36]
  viability, T/C: 27.9%
Second compound 1 µM, first compound 3.16 µM
  viability, T/C: 13.2%
Second compound 1 µM, first compound 10 µM
  viability, T/C: 13.8%

## O=C(c1ccc(F)c(F)c1Nc1ccc(I)cc1F)N1CC(O)([C@@H]2CCCCN2)C1 + CNC(C)C(=O)NC1CN(S(=O)(=O)c2cccc(S(=O)(=O)N3CCC4CCC(C(=O)NC(c5ccccc5)c5ccccc5)N4C(=O)C(NC(=O)C(C)NC)C3)c2)CCC2CCC(C(=O)NC(c3ccccc3)c3ccccc3)N2C1=O
Second compound 0.00316 µM
  pIC50: 6.69
Second compound 0.01 µM
  pIC50: 6.61
Second compound 0.0316 µM
  pIC50: 6.59
Second compound 0.1 µM
  pIC50: 7.13
Second compound 0.316 µM
  pIC50: 7.11
Second compound 1 µM
  pIC50: > 8.50
[1]
  viability, T/C: 75.5%
[2]
  viability, T/C: 69.5%
[3]
  viability, T/C: 63.3%
[4]
  viability, T/C: 71.5%
[25]
  viability, T/C: 37.5%
[26]
  viability, T/C: 13.9%
[5]
  viability, T/C: 100%
[6]
  viability, T/C: 73.2%
[7]
  viability, T/C: 75.2%
[8]
  viability, T/C: 91.7%
[27]
  viability, T/C: 39.8%
[28]
  viability, T/C: 23.4%
[9]
  viability, T/C: 92%
[10]
  viability, T/C: 72%
[11]
  viability, T/C: 73.6%
[12]
  viability, T/C: 90%
[29]
  viability, T/C: 43.1%
[30]
  viability, T/C: 14.7%
[13]
  viability, T/C: 72.3%
[14]
  viability, T/C: 83.5%
[15]
  viability, T/C: 56.3%
[16]
  viability, T/C: 49.9%
[31]
  viability, T/C: 19%
[32]
  viability, T/C: 8.71%
[17]
  viability, T/C: 60.1%
[18]
  viability, T/C: 63.7%
[19]
  viability, T/C: 47.8%
[20]
  viability, T/C: 47.9%
[33]
  viability, T/C: 38.6%
[34]
  viability, T/C: 7.49%
[21]
  viability, T/C: 37.1%
[22]
  viability, T/C: 42.3%
[23]
  viability, T/C: 37.9%
[24]
  viability, T/C: 33.5%
[35]
  viability, T/C: 14.8%
[36]
  viability, T/C: 5.83%
